According to patent US12275731B2, “Azaindole inhibitors of wild-type and mutant forms of LRRK2” (DANA-FARBER CANCER INSTITUTE, INC., priority 2018, dated 2025):

What was measured:
Assay in all cases: KinomeScan profiling
Format in all cases: binding
[1] = target: T1, NLK (Homo sapiens, UniProt Q9UBE8); settings: read-out: % control
T1 sequence (Q9UBE8 1-527): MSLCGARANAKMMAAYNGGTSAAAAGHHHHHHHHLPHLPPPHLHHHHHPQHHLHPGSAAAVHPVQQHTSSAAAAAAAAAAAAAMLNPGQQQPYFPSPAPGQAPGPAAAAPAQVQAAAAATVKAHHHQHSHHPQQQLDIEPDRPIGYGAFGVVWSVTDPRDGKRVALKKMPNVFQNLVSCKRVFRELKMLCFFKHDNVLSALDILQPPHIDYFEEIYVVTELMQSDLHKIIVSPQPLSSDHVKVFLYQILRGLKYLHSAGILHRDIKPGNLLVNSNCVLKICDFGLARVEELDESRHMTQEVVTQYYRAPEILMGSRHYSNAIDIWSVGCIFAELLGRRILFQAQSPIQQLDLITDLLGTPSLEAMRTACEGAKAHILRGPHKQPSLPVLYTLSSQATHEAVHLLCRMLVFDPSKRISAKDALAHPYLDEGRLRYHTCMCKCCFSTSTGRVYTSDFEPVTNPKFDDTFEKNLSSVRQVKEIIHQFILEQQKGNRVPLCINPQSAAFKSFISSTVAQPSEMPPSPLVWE
How it was run: (§1)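 The panel spans 468 kinases, and each inventive compound was applied at 1 μM from DMSO. Lower % control means stronger binding; the activity cut-off is set at less than 35%.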

[2] = target: T2, ABL1(F317I)-nonphosphorylated (Homo sapiens, UniProt P00519, F317I); settings: read-out: % control
T2 construct: purchased KinomeScan®
T2 sequence (P00519 whole entry F317I): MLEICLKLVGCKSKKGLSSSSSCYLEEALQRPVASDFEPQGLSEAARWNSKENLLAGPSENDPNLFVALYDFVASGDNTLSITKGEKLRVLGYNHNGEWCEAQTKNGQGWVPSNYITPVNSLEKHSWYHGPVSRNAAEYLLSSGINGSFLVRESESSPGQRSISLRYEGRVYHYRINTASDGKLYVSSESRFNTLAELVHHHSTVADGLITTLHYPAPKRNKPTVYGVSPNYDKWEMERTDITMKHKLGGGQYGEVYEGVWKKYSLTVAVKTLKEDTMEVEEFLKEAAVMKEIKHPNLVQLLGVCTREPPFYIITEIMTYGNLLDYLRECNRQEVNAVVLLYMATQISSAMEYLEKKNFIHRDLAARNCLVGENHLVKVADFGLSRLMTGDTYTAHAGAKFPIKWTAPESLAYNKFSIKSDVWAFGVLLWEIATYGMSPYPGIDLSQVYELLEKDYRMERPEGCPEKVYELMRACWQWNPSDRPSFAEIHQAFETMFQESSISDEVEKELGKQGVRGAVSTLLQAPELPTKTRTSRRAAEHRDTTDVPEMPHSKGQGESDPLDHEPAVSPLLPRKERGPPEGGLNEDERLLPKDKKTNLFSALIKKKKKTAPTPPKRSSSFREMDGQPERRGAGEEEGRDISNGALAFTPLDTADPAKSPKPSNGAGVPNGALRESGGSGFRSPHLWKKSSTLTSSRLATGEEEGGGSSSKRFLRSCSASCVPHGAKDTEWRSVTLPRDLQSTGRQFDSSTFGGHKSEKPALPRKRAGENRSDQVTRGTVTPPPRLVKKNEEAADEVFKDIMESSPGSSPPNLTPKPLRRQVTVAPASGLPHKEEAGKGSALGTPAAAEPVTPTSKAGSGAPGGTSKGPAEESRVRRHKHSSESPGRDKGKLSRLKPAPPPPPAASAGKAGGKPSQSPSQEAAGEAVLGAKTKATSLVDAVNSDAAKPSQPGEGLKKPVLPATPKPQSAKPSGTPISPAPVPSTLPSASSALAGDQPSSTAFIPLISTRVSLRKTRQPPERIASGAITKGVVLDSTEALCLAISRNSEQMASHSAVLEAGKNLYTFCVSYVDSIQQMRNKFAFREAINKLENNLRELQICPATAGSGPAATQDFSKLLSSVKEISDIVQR
How it was run: as §1

[3] = target: YANK2 (Homo sapiens, UniProt Q9NY57); settings: YANK2, 1 μM; read-out: % control
YANK2, sequence (Q9NY57 whole entry): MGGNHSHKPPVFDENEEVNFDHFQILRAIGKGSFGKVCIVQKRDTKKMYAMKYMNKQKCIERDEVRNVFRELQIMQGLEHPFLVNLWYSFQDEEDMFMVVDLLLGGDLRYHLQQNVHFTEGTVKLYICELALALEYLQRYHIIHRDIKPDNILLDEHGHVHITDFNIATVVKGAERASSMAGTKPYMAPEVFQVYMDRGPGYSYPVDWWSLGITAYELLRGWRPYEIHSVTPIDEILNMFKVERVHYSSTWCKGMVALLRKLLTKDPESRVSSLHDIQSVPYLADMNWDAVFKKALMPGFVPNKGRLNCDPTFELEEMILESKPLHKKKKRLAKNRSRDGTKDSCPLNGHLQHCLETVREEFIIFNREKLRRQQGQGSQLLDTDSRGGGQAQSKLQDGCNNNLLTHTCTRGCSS
How it was run: as §1

[4] = target: CAMK2A (Homo sapiens, UniProt Q9UQM7); settings: read-out: % control
CAMK2A, sequence (Q9UQM7 whole entry): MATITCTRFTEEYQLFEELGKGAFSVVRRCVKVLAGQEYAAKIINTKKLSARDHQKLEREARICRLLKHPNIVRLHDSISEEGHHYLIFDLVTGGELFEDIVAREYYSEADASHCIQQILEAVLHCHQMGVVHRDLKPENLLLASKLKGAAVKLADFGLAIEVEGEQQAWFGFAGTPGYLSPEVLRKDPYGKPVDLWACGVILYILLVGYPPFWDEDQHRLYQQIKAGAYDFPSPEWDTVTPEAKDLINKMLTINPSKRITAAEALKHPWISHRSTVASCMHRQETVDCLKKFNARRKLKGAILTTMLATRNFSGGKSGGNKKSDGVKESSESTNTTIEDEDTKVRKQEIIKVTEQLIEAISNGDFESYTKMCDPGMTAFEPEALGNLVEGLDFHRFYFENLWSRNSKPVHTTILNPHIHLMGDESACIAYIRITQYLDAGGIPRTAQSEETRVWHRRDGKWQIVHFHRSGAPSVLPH
How it was run: as §1

[5] = target: T3, LZK (Homo sapiens, UniProt O43283); settings: read-out: % control
T3 sequence (O43283 1-966): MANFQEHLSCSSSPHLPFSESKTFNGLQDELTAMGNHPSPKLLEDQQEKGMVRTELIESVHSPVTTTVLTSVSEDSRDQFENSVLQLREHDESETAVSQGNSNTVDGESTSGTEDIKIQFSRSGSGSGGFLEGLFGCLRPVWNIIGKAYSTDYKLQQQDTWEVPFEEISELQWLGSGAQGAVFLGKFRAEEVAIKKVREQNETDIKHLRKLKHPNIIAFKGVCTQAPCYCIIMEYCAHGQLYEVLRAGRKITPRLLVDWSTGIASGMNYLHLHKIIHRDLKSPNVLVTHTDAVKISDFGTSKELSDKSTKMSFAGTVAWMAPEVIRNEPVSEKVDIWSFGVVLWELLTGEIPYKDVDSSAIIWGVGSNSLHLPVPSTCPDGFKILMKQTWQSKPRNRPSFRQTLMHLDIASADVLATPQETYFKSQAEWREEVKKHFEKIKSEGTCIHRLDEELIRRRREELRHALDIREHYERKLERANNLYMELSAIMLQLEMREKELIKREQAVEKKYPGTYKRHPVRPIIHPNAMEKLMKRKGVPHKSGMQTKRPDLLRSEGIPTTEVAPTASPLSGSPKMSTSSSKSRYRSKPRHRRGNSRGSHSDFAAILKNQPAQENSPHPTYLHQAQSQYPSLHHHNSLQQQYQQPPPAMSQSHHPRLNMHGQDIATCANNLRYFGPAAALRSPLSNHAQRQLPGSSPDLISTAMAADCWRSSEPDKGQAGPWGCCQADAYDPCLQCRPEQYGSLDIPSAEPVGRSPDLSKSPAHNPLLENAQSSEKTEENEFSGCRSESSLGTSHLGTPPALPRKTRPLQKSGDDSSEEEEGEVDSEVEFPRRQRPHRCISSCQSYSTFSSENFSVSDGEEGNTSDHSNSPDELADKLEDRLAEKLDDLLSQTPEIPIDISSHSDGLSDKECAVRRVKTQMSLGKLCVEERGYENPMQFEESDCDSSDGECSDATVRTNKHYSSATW
How it was run: as §1

[6] = target: T4, AKT3 (Homo sapiens, UniProt Q9Y243); settings: AKT3, 1 μM; read-out: % control
T4 construct: purchased KinomeScan®
T4 sequence (Q9Y243 whole entry): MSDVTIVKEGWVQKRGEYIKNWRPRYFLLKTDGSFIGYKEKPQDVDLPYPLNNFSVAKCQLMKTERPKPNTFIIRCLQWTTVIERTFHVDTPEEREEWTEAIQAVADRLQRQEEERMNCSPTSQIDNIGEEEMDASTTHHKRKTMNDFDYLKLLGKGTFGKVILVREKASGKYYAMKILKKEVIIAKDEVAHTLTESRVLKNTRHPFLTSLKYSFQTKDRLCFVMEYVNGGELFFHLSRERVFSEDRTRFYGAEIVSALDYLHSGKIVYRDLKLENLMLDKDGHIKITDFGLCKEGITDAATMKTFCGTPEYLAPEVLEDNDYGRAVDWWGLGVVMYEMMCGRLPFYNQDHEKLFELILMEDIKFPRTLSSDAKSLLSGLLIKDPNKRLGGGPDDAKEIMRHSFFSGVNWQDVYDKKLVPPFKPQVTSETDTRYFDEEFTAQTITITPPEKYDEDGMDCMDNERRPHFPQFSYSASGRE
How it was run: as §1

[7] = target: T5, DCAMKL2 (Homo sapiens, UniProt Q8N568); settings: DCAMKL2, 1 μM; read-out: % control
T5 sequence (Q8N568 1-766): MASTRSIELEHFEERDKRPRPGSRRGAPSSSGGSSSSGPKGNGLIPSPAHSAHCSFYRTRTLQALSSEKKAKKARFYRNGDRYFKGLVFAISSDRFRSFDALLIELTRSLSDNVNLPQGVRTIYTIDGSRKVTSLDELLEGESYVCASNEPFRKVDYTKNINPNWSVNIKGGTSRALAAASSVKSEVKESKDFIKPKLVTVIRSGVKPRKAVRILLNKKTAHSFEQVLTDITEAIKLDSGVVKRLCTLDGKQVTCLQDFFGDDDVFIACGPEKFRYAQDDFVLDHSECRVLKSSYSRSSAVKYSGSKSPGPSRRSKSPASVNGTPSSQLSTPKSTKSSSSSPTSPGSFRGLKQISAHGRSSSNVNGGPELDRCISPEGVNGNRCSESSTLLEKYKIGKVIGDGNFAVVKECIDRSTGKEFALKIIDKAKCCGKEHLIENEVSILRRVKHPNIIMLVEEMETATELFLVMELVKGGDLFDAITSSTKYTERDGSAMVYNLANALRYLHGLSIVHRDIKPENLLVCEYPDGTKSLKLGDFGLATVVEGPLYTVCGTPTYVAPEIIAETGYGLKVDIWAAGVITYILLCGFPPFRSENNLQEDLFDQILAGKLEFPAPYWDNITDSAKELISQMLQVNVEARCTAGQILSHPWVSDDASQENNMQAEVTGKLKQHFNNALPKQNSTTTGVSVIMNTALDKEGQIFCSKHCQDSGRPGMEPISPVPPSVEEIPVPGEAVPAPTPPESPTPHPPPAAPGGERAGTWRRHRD
How it was run: as §1

[8] = target: EGFR(T790M) (Homo sapiens, UniProt P00533, T790M); settings: read-out: % control
EGFR(T790M), sequence (P00533 25-1210 T790M): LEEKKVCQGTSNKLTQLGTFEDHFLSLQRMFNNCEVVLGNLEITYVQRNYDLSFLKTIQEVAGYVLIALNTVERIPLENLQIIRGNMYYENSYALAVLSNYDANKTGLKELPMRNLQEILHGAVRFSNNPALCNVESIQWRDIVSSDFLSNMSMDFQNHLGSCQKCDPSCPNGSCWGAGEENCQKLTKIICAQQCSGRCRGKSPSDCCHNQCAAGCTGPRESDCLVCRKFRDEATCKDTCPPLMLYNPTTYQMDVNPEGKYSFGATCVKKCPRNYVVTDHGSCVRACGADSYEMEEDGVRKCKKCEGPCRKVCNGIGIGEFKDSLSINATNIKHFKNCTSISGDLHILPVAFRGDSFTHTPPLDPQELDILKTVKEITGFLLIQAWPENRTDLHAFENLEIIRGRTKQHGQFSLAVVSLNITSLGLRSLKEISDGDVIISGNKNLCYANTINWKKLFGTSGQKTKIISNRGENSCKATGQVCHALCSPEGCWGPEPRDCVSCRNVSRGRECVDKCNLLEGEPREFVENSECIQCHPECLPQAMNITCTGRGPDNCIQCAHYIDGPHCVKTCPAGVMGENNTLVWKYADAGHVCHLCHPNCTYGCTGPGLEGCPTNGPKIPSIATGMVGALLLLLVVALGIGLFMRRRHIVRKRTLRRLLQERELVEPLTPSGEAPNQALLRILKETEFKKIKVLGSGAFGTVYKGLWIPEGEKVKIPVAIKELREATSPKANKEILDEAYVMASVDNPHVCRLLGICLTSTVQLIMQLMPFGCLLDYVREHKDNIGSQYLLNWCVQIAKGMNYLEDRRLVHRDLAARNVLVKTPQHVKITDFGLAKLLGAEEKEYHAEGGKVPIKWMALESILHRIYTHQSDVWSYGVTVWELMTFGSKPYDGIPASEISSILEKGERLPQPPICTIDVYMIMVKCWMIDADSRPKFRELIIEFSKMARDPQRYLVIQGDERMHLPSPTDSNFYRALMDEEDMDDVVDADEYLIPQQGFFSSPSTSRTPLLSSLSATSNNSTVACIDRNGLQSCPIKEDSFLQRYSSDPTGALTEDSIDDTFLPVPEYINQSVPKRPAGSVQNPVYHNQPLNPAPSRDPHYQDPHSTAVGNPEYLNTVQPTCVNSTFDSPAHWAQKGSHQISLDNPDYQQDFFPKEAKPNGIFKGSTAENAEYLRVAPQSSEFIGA
How it was run: as §1

Row | SMILES | remaining binding at 1 µM [1] | remaining binding at 1 µM [2] | remaining binding at 1 µM [3] | remaining binding at 1 µM [4] | remaining binding at 1 µM [5] | remaining binding at 1 µM [6] | remaining binding at 1 µM [7] | remaining binding at 1 µM [8]
1 | CNc1c(-c2cnn([C@H]3CCN(C(C)=O)C[C@@H]3F)c2)cnc2[nH]cc(Cl)c12 [Compound 77, 1-((3S,4S)-4-(4-(3-chloro-4-(methylamino)-1H-pyrrolo[2,3-b]pyridin-5-yl)-1H-pyrazol-1-yl)-3-fluoropiperidin-1-yl)ethan-1-one] | 95% | 100% | 100% | 100% | 61% | 95% | 89% | 93%
2 | O=C(c1ccc(-c2cnc3[nH]cc(Cl)c3c2NC2CCCC2)cc1)N1CCC(N2CCOCC2)CC1 [Compound 101, (4-(3-chloro-4-(cyclopentylamino)-1H-pyrrolo[2,3-b]pyridin-5-yl)phenyl)(4-morpholinopiperidin-1-yl)methanone] | 88% | 100% | 100% | 92% | 76% | 99% | 99% | 100%
3 | CNc1c(-c2ccc(C(=O)N3CCC(N4CCOCC4)CC3)cc2)cnc2[nH]cc(Cl)c12 [Compound 96, (4-(3-chloro-4-(methylamino)-1H-pyrrolo[2,3-b]pyridin-5-yl)phenyl)(4-morpholinopiperidin-1-yl)methanone] | 100% | 100% | 100% | 96% | 89% | 100% | 78% | 83%
